Experimental data: the supplement of paper PMC10307832

Assays:
Test in all cases: relative viability (nuclei count vs DMSO), 5 days (fraction); higher = more cells survive
NCI-H650 = test system: NCI-H650
How it was run: (§1)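 Medians of duplicate plates are given as relative viability. That measure is the nuclei count in treated wells divided by the count in vehicle wells. Counts were taken on 4× images of lung cancer cell lines in 1536-well plates, 5 days after pin-tool dosing the day after seeding with one drug alone or a fixed anchor-drug dose plus five library-drug doses (not always all listed) in √10 steps.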

NCI-H23 = test system: NCI-H23
How it was run: as §1

NCI-H1650 = test system: NCI-H1650
How it was run: as §1

LCLC-103H = test system: LCLC-103H
How it was run: as §1

NCI-H727 = test system: NCI-H727
How it was run: as §1

PC-3 [JPC-3] = test system: PC-3 [JPC-3]
How it was run: as §1

LU99A = test system: LU99A
How it was run: as §1

NCI-H1563 = test system: NCI-H1563
How it was run: as §1

HCC-44 = test system: HCC-44
How it was run: as §1

NCI-H460 = test system: NCI-H460
How it was run: as §1

201T = test system: 201T
How it was run: as §1

H3255 = test system: H3255
How it was run: as §1

NCI-H1944 = test system: NCI-H1944
How it was run: as §1

NCI-H2347 = test system: NCI-H2347
How it was run: as §1

PC-14 = test system: PC-14
How it was run: as §1

A-427 = test system: A-427
How it was run: as §1

LK-2 = test system: LK-2
How it was run: as §1

SW 1573 = test system: SW 1573
How it was run: as §1

NCI-H838 = test system: NCI-H838
How it was run: as §1

COR-L23 = test system: COR-L23
How it was run: as §1

LCLC-97TM1 = test system: LCLC-97TM1
How it was run: as §1

NC(=O)Nc1cc(-c2cccc(F)c2)sc1C(=O)N[C@H]1CCCNC1 [AZD7762] + C[C@@H](Oc1cc(-c2cnn(C3CCNCC3)c2)cnc1N)c1c(Cl)ccc(F)c1Cl [Crizotinib] (partner 1 µM) was tested. Which relative viability (NCI-H650; first compound 0.01 µM) did it give?
Its relative viability is 0.882.

What about the relative viability (NCI-H650; first compound 0.03162 µM) of the same compound?
The relative viability was 0.594.

What about the relative viability (NCI-H650; first compound 0.1 µM) of the same compound?
The relative viability was 0.714.

And the relative viability (NCI-H650; first compound 0.3162 µM)?
Its relative viability is 0.688.

And the relative viability (NCI-H650; first compound 1 µM)?
The relative viability was 0.466.

And the relative viability (NCI-H23; first compound 0.01 µM)?
Its relative viability is 0.687.

And the relative viability (NCI-H23; first compound 0.03162 µM)?
The relative viability was 0.517.

What about the relative viability (NCI-H23; first compound 0.1 µM) of the same compound?
The relative viability was 0.542.

What about the relative viability (NCI-H23; first compound 0.3162 µM) of the same compound?
Its relative viability is 0.323.

And the relative viability (NCI-H23; first compound 1 µM)?
The relative viability was 0.203.

And the relative viability (NCI-H1650; first compound 0.01 µM)?
Its relative viability is 1.18.

And the relative viability (NCI-H1650; first compound 0.03162 µM)?
The relative viability was 1.03.

And the relative viability (NCI-H1650; first compound 0.1 µM)?
Its relative viability is 0.864.

And the relative viability (NCI-H1650; first compound 0.3162 µM)?
Its relative viability is 0.603.

And the relative viability (NCI-H1650; first compound 1 µM)?
The relative viability was 0.207.

And the relative viability (LCLC-103H; first compound 0.01 µM)?
Its relative viability is 1.15.

What about the relative viability (LCLC-103H; first compound 0.03162 µM) of the same compound?
The relative viability was 0.994.

What about the relative viability (LCLC-103H; first compound 0.1 µM) of the same compound?
Its relative viability is 1.08.

And the relative viability (LCLC-103H; first compound 0.3162 µM)?
The relative viability was 1.01.

And the relative viability (LCLC-103H; first compound 1 µM)?
Its relative viability is 1.04.

What about the relative viability (NCI-H727; first compound 0.01 µM) of the same compound?
The relative viability was 0.984.

What about the relative viability (NCI-H727; first compound 0.03162 µM) of the same compound?
The relative viability was 0.865.

What about the relative viability (NCI-H727; first compound 0.1 µM) of the same compound?
Its relative viability is 0.758.

What about the relative viability (NCI-H727; first compound 0.3162 µM) of the same compound?
The relative viability was 0.519.

What about the relative viability (NCI-H727; first compound 1 µM) of the same compound?
Its relative viability is 0.259.

What about the relative viability (PC-3 [JPC-3]; first compound 0.01 µM) of the same compound?
Its relative viability is 0.999.

What about the relative viability (PC-3 [JPC-3]; first compound 0.03162 µM) of the same compound?
The relative viability was 0.962.

And the relative viability (PC-3 [JPC-3]; first compound 0.1 µM)?
Its relative viability is 1.01.

What about the relative viability (PC-3 [JPC-3]; first compound 0.3162 µM) of the same compound?
Its relative viability is 1.02.

And the relative viability (PC-3 [JPC-3]; first compound 1 µM)?
Its relative viability is 0.903.

What about the relative viability (LU99A; first compound 0.01 µM) of the same compound?
Its relative viability is 0.725.

What about the relative viability (LU99A; first compound 0.03162 µM) of the same compound?
Its relative viability is 0.67.

And the relative viability (LU99A; first compound 0.1 µM)?
The relative viability was 0.602.

And the relative viability (LU99A; first compound 0.3162 µM)?
Its relative viability is 0.587.

And the relative viability (LU99A; first compound 1 µM)?
Its relative viability is 0.228.

And the relative viability (NCI-H1563; first compound 0.01 µM)?
Its relative viability is 0.957.

And the relative viability (NCI-H1563; first compound 0.03162 µM)?
Its relative viability is 0.833.

What about the relative viability (NCI-H1563; first compound 0.1 µM) of the same compound?
The relative viability was 0.872.

And the relative viability (NCI-H1563; first compound 0.3162 µM)?
The relative viability was 0.889.

And the relative viability (NCI-H1563; first compound 1 µM)?
The relative viability was 0.741.

And the relative viability (HCC-44; first compound 0.01 µM)?
Its relative viability is 0.892.

What about the relative viability (HCC-44; first compound 0.03162 µM) of the same compound?
The relative viability was 0.808.

And the relative viability (HCC-44; first compound 0.1 µM)?
Its relative viability is 0.854.

And the relative viability (HCC-44; first compound 0.3162 µM)?
Its relative viability is 0.787.

What about the relative viability (HCC-44; first compound 1 µM) of the same compound?
The relative viability was 0.745.

And the relative viability (NCI-H460; first compound 0.01 µM)?
The relative viability was 1.13.

And the relative viability (NCI-H460; first compound 0.03162 µM)?
The relative viability was 0.879.

What about the relative viability (NCI-H460; first compound 0.1 µM) of the same compound?
Its relative viability is 0.758.

And the relative viability (NCI-H460; first compound 0.3162 µM)?
Its relative viability is 0.593.

What about the relative viability (NCI-H460; first compound 1 µM) of the same compound?
Its relative viability is 0.0457.

What about the relative viability (201T; first compound 0.01 µM) of the same compound?
Its relative viability is 0.969.

What about the relative viability (201T; first compound 0.03162 µM) of the same compound?
The relative viability was 1.02.

What about the relative viability (201T; first compound 0.1 µM) of the same compound?
Its relative viability is 1.03.

What about the relative viability (201T; first compound 0.3162 µM) of the same compound?
Its relative viability is 1.04.

And the relative viability (201T; first compound 1 µM)?
Its relative viability is 1.16.

And the relative viability (H3255; first compound 0.01 µM)?
Its relative viability is 0.997.

And the relative viability (H3255; first compound 0.03162 µM)?
Its relative viability is 0.88.

And the relative viability (H3255; first compound 0.1 µM)?
The relative viability was 0.891.

What about the relative viability (H3255; first compound 0.3162 µM) of the same compound?
Its relative viability is 0.867.

And the relative viability (H3255; first compound 1 µM)?
Its relative viability is 0.42.

What about the relative viability (NCI-H1944; first compound 0.01 µM) of the same compound?
Its relative viability is 1.29.

What about the relative viability (NCI-H1944; first compound 0.03162 µM) of the same compound?
The relative viability was 1.22.

And the relative viability (NCI-H1944; first compound 0.1 µM)?
The relative viability was 1.2.

What about the relative viability (NCI-H1944; first compound 0.3162 µM) of the same compound?
Its relative viability is 1.19.

What about the relative viability (NCI-H1944; first compound 1 µM) of the same compound?
The relative viability was 0.918.

What about the relative viability (NCI-H2347; first compound 0.01 µM) of the same compound?
The relative viability was 1.01.

What about the relative viability (NCI-H2347; first compound 0.03162 µM) of the same compound?
Its relative viability is 0.918.

What about the relative viability (NCI-H2347; first compound 0.1 µM) of the same compound?
Its relative viability is 0.734.

And the relative viability (NCI-H2347; first compound 0.3162 µM)?
The relative viability was 0.928.

What about the relative viability (NCI-H2347; first compound 1 µM) of the same compound?
Its relative viability is 0.67.

And the relative viability (PC-14; first compound 0.01 µM)?
The relative viability was 0.943.

And the relative viability (PC-14; first compound 0.03162 µM)?
The relative viability was 0.859.

And the relative viability (PC-14; first compound 0.1 µM)?
The relative viability was 0.922.

And the relative viability (PC-14; first compound 0.3162 µM)?
Its relative viability is 0.81.

And the relative viability (PC-14; first compound 1 µM)?
The relative viability was 0.41.

What about the relative viability (A-427; first compound 0.01 µM) of the same compound?
The relative viability was 1.01.

And the relative viability (A-427; first compound 0.03162 µM)?
The relative viability was 0.869.

What about the relative viability (A-427; first compound 0.1 µM) of the same compound?
The relative viability was 0.992.

What about the relative viability (A-427; first compound 0.3162 µM) of the same compound?
Its relative viability is 0.815.

What about the relative viability (A-427; first compound 1 µM) of the same compound?
The relative viability was 0.386.

What about the relative viability (LK-2; first compound 0.01 µM) of the same compound?
The relative viability was 0.203.

What about the relative viability (LK-2; first compound 0.03162 µM) of the same compound?
Its relative viability is 0.221.

What about the relative viability (LK-2; first compound 0.1 µM) of the same compound?
The relative viability was 0.225.

And the relative viability (LK-2; first compound 0.3162 µM)?
Its relative viability is 0.203.

And the relative viability (LK-2; first compound 1 µM)?
The relative viability was 0.228.

What about the relative viability (SW 1573; first compound 0.01 µM) of the same compound?
Its relative viability is 0.976.

What about the relative viability (SW 1573; first compound 0.03162 µM) of the same compound?
Its relative viability is 0.879.

What about the relative viability (SW 1573; first compound 0.1 µM) of the same compound?
The relative viability was 0.907.

What about the relative viability (SW 1573; first compound 0.3162 µM) of the same compound?
The relative viability was 0.934.

What about the relative viability (SW 1573; first compound 1 µM) of the same compound?
Its relative viability is 0.738.

And the relative viability (NCI-H838; first compound 0.01 µM)?
The relative viability was 0.809.

And the relative viability (NCI-H838; first compound 0.03162 µM)?
The relative viability was 0.781.

What about the relative viability (NCI-H838; first compound 0.1 µM) of the same compound?
The relative viability was 0.762.

What about the relative viability (NCI-H838; first compound 0.3162 µM) of the same compound?
The relative viability was 0.687.

And the relative viability (NCI-H838; first compound 1 µM)?
The relative viability was 0.301.

And the relative viability (COR-L23; first compound 0.01 µM)?
Its relative viability is 0.775.

What about the relative viability (COR-L23; first compound 0.03162 µM) of the same compound?
The relative viability was 0.656.

And the relative viability (COR-L23; first compound 0.1 µM)?
Its relative viability is 0.616.

And the relative viability (COR-L23; first compound 0.3162 µM)?
The relative viability was 0.45.

And the relative viability (COR-L23; first compound 1 µM)?
Its relative viability is 0.117.

What about the relative viability (LCLC-97TM1; first compound 0.01 µM) of the same compound?
The relative viability was 0.385.

What about the relative viability (LCLC-97TM1; first compound 0.03162 µM) of the same compound?
Its relative viability is 0.337.

And the relative viability (LCLC-97TM1; first compound 0.1 µM)?
The relative viability was 0.317.

And the relative viability (LCLC-97TM1; first compound 0.3162 µM)?
The relative viability was 0.448.

And the relative viability (LCLC-97TM1; first compound 1 µM)?
The relative viability was 0.334.
